Laboratory results from article PMC7753922, “Effect of the anti-parasitic compounds pyrvinium pamoate and artemisinin in enzymatic and culture assays: Data on the search for new anti-echinococcal drugs” (Data in Brief, 2020).
Where two headings read alike, the source gives them in different places.

Tests used:
Format in all cases: biochemical
[1] = biological target: T1, succinate-cytochrome c reductase (mitochondrial complexes II and III) (Echinococcus multilocularis, UniProt Q9TE80); assay: spectrophotometric succinate-cytochrome c reductase assay, mitochondrial fraction; details: coupled complex II and III activity, 30 mM potassium phosphate, 1 mM MgCl2, pH 7.5, 25 °C
T1 construct: gene Cytb; coupled activity of native complexes II and III in freeze-thawed enriched mitochondrial fraction of protoscoleces; not purified; with Succinate dehydrogenase [ubiquinone] flavoprotein subunit, mitochondrial; Succinate dehydrogenase [ubiquinone] iron-sulfur subunit, mitochondrial; Succinate dehydrogenase [ubiquinone] cytochrome b large subunit, mitochondrial; Succinate dehydrogenase [ubiquinone] cytochrome b small subunit, mitochondrial
T1 sequence (Q9TE80 1-355): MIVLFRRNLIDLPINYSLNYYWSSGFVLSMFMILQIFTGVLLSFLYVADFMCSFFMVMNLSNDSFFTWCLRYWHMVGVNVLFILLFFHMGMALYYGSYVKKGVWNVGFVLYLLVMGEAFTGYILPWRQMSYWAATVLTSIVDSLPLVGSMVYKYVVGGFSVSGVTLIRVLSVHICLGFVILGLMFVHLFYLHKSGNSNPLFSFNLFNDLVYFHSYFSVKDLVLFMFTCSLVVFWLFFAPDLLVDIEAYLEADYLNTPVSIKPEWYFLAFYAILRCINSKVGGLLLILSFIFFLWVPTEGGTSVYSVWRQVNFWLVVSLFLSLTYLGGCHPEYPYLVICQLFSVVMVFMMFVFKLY
T1 sequence (Q9GP40 whole entry partner): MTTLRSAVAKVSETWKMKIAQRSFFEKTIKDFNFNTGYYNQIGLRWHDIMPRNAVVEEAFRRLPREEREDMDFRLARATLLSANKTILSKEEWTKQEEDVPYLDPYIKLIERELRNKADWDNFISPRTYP
T1 sequence (A0A1Z4EAV8 26-648 partner): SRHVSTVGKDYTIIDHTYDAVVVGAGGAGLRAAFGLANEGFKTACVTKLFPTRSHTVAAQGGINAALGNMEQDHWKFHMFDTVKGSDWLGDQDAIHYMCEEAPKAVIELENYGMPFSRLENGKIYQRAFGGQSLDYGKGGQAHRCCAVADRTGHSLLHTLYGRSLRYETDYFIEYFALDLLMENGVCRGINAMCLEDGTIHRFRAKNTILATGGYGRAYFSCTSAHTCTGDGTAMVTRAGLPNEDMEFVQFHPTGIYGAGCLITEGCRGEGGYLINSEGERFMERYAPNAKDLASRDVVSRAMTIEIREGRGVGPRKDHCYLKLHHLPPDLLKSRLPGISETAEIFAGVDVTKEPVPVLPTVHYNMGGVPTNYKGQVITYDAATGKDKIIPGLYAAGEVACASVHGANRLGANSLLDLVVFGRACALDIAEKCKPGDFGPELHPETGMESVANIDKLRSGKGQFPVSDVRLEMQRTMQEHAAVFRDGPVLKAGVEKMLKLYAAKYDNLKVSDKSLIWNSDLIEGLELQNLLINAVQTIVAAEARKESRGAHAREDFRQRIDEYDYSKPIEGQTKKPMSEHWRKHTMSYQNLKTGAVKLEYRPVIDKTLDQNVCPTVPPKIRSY
T1 sequence (A0A1Z4EAX0 21-272 partner): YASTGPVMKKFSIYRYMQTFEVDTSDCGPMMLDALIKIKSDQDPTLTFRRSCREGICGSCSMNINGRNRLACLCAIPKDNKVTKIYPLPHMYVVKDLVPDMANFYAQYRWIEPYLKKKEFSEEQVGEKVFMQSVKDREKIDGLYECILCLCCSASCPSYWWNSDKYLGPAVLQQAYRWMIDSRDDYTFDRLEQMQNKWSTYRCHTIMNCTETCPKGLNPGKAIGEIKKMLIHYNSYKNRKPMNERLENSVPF
T1 sequence (A0A1Z4EAX1 53-194 partner): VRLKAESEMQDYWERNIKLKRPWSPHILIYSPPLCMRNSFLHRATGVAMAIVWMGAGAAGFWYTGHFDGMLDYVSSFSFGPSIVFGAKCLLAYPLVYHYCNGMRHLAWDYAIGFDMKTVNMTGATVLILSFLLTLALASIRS
T1 sequence (A0A1Z4EAW8 47-153 partner): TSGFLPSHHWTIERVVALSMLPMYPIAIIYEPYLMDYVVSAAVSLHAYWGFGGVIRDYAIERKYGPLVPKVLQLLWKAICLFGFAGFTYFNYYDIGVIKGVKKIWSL
Description: spectrophotometric succinate-cytochrome c reductase assay, mitochondrial fraction on succinate-cytochrome c reductase (mitochondrial complexes II and III)

[2] = biological target: T2, mitochondrial complex II (succinate-quinone reductase, SQR) (Echinococcus multilocularis, UniProt A0A1Z4EAV8+A0A1Z4EAW8+A0A1Z4EAX0+A0A1Z4EAX1); assay: spectrophotometric succinate-quinone reductase assay, mitochondrial fraction; details: 30 mM potassium phosphate, 1 mM MgCl2, pH 7.5, 25 °C
T2 construct: gene SDHB1; native complex II in freeze-thawed enriched mitochondrial fraction of protoscoleces; not purified
T2 sequence (A0A1Z4EAX0 21-272): as the sequence (A0A1Z4EAX0 21-272 partner) above
T2 sequence (A0A1Z4EAX1 53-194): as the sequence (A0A1Z4EAX1 53-194 partner) above
T2 sequence (A0A1Z4EAW8 47-153): as the sequence (A0A1Z4EAW8 47-153 partner) above
T2 sequence (A0A1Z4EAV8 26-648): as the sequence (A0A1Z4EAV8 26-648 partner) above
Description: spectrophotometric succinate-quinone reductase assay, mitochondrial fraction on mitochondrial complex II (succinate-quinone reductase, SQR)

[3] = biological target: T3, mitochondrial complex I (NADH-ubiquinone reductase; NADH-decyl rhodoquinone reductase) (Echinococcus multilocularis, UniProt Q9TE76); assay: spectrophotometric NADH-quinone reductase assay, mitochondrial fraction; details: quinone acceptor decyl rhodoquinone (methods; table heads it NADH-ubiquinone reductase), 30 mM potassium phosphate, 1 mM MgCl2, pH 7.5, 25 °C
T3 construct: gene ND1; native multi-subunit complex I in freeze-thawed enriched mitochondrial fraction of protoscoleces; not purified
T3 sequence (Q9TE76 1-297): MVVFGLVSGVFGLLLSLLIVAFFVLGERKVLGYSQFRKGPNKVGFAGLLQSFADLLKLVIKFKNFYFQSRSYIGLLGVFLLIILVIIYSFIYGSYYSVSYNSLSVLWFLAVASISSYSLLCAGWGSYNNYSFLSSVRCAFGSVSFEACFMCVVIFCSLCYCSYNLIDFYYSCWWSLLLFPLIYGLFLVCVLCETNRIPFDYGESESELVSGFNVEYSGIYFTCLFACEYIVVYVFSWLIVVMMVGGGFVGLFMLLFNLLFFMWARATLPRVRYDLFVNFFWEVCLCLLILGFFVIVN
T3 sequence (A0A068Y9L9 30-218 partner): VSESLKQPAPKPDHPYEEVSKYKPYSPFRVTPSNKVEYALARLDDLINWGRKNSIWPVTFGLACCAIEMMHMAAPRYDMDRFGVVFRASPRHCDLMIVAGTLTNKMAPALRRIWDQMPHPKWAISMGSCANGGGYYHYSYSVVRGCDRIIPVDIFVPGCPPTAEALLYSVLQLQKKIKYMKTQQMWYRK
T3 sequence (A0A068YF50 31-207 partner): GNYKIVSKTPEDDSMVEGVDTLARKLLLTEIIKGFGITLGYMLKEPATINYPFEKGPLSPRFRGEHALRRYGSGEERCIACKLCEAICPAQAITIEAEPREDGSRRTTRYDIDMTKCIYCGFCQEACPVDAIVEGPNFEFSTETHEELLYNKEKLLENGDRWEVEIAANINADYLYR
Description: spectrophotometric NADH-quinone reductase assay, mitochondrial fraction on mitochondrial complex I (NADH-ubiquinone reductase; NADH-decyl rhodoquinone reductase)

[4] = read-out: NADH-ubiquinone reductase / (Complex I)
[5] = read-out: Succinate-quinone reductase: SQR / (Complex II)

IC50 [1, 5]	IC50 [2, 5]	Structure (SMILES)	IC50 [1, 4]	IC50 [2, 4]	IC50 [3]
		C[C@@H]1CC[C@H]2[C@@H](C)C(=O)O[C@@H]3O[C@@]4(C)CC[C@@H]1[C@]32OO4 [artemisinin]	> 40 µM	> 40 µM	> 40 µM
> 30 µM	> 30 µM	Cc1cc(/C=C/c2ccc3cc(N(C)C)ccc3[n+]2C)c(C)n1-c1ccccc1 [pyrvinium pamoate]			11 ± 0.3 µM
